Results: PMC7791547, “Biochemical characterization of an E. coli cell division factor FtsE shows ATPase cycles similar to the NBDs of ABC-transporters” (Bioscience Reports, 2021)

What was measured:
FtsE (FtsEEc) [1] = target: T1, FtsE (FtsEEc) (Escherichia coli, UniProt P0A9R7, K41A); test: MANT-ATP fluorescence binding; conditions: labelled compound; 25 mM HEPES pH 7.5, 50 mM KCl, 10 mM MgCl2; Walker A mutant
T1 construct: ftsE ORF in His-pBAD18; His-tagged, soluble, expressed in E. coli C41; Ni-NTA and two SEC rounds

FtsE (FtsEEc) [2] = target: T2, FtsE (FtsEEc) (Escherichia coli, UniProt P0A9R7); test: fluorescence titration, double reciprocal plot; assay type: binding
T2 construct: ftsE ORF in His-pBAD18; His-tagged, soluble, expressed in E. coli C41; Ni-NTA and two SEC rounds
T2 sequence (P0A9R7 1-222): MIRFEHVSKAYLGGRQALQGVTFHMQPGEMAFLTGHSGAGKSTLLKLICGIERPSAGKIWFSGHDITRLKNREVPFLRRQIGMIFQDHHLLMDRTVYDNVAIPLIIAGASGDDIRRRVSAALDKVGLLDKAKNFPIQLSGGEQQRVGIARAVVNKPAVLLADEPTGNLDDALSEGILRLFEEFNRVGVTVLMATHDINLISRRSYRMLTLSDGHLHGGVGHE

T1 sequence (P0A9R7 whole entry K41A): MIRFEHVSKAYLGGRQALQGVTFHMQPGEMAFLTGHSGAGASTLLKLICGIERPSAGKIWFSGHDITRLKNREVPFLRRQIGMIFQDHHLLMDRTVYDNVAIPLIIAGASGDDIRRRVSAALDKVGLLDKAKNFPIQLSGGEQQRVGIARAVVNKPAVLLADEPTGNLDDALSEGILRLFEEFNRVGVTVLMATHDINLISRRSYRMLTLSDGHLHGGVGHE

- Kd (FtsE (FtsEEc) [2]): 21.5 ± 2.2 nM
SMILES: CNc1ccccc1C(=O)O[C@H]1[C@@H](O)[C@H](n2cnc3c(N)ncnc32)O[C@@H]1COP(=O)(O)OP(=O)(O)OP(=O)(O)O [MANT-ATP]
- MANT-ATP fluorescence binding (FtsE (FtsEEc) [1]): ATP binding affinity for FtsE^K41A, and it was found to be much lower than wildtype
